Patent US7201899B2, “Materials and methods for management of hyperacute rejection in human xenotransplantation” (BresaGen Limited, priority 1994, dated 2007)

Columns and labels:
[1] = test system: pig RBC; experiment: Hemagglutination of pig RBC by human serum: sugar inhibition; type: cell-based; conditions: for Inhibitory Concentration: inhibition of pig RBC hemagglutination by pooled human AB serum; for concentration range inhibiting agglutination (in words): pig RBC agglutination by human serum
Description: The methods used to investigate the hemagglutination of pig red blood cells (RBC's) by human serum was adapted from the methods described by Galili, J. Exp. Med. 160: 1579–81 (1984) and Severson, Immunol. 96: 785–789 (1966).
A. Media/Solution Preparation • 1. Human Serum Albumin (HSA) (CSL, Melbourne, Australia) (5 mg/ml) was dissolved in PBS, filter sterilized, and stored at 4° C. • 2. Preparation of sugars: • 1 M stock solutions of sugar were prepared by dissolving the amount indicated in 100 ml of PBS. Sodium azide was added (0.02%) and solutions stored at 4° C.
B. Preparation of Pig RBC'S • 1. Heparinised pig blood (Animal Resources, Clayton, Australia) is centrifuged at 800 RPM for 10 min to pellet the RBC. • 2. The RBC pellet is washed by resuspension in PBS (10 ml) and recentrifugation (repeated 3 times). After the final wash, the RBC pellet is resuspended in 10 ml PBS. • 3. A 0.5% solution of RBC's is prepared by adding 50 ul RBC solution (from step 2, above) to 10 ml PBS containing 0.5 g/100 ml of HSA.
C. Preparation of 96-well Microtitre Plates (Titretek. USA) • 1. Add 25 ul of PBS to each well. • 2. Add 25 ul of pooled human AB serum (CSL, Melbourne, Australia) to column 1 and serially dilute by removing 25 ul from column 1 and adding to column 2, then repeating by sequentially removing and adding 25 ul from and to each well across the plate, finally discarding 25 μl from column 11 and adding no serum to column 12. • 3. Add 25 ul of sugar solution to each row in decreasing concentrations down rows. No sugar solution is added to the final row. • 4. Incubate at 4° C. overnight and then at 37° C. for 30 min. • 5. Add 50 ul of 0.5% pig RBC to each well; vortex and incubate at room temperature for 2 hours. Determine agglutination visually. II. Results

[2] = test system: PK-1 and PAE's cells; experiment: Antibody staining and FACS analysis of porcine cells; type: binding; conditions: for inhibition of anti-GAL IgM and/or IgG staining of porcine cells by sugar: anti-GAL antibodies pre-incubated with sugar (0.1 M) at 37° C. for 30 min
Description: C. Antibody Staining and FACS Analysis • 1) Add 2 ml TED to a 75 cm^2 culture flask containing PK-1 or PAE'S, and incubate at room temperature for 10 min. • 2) Add RPMI plus 10% FCS (5 ml) to neutralize trypsin. • 3) Pellet cells by centrifugation (700 g, 5 min, • 4) Wash cells by resuspension and centrifugation in Hanks Buffer (×2). • 5) Pellet cells by centrifugation (700 g, 5 min, 4° C.). • 6) Resuspend cell pellet in Hanks buffer containing purified anti-GAL antibodies, GAL-depleted serum or GAL-depleted IgG and incubate at 4° C. for 60 min. All antibodies were used undiluted, or diluted 1:2 or 1:4 in Hanks buffer. • 7) Add 1 ml of Hanks Buffer, pellet cells by centrifugation and aspirate off supernatant. • 8) Resuspend pellet in FITC-labelled sheep-anti-human IgG Fab2 or IgM Fab2 (Silenus, Hawthorn, Australia) diluted 1:80 in Hanks buffer. • 9) Incubate for 30 min. at 4° C. • 10) Wash three times with Hanks buffer; resuspend pellet from final wash in 0.5 ml Hanks buffer. • 11) Analyze stained samples using a FACScan II (Becton Dickinson) according to the manufacturer's instructions.
The specificity of the anti-GAL antibody binding to porcine cells was determined by examining the ability of sugars of various structures to inhibit antibody binding. In these competition studies the anti-GAL antibodies were pre-incubated with sugar (0.1 M) at 37° C. for 30 min before adding to the cells.

[3] = test system: pig kidney, heart and liver sections; experiment: Immunostaining of pig tissues with anti-GAL antibodies; type: binding; conditions: pig renal cortex sections, proximal tubule brush borders; sugar 0.1 M
Description: Pig kidney was fixed in formalin and dehydrated before embedding in Paraplast. Pig heart and liver were fixed in paraformaldehyde-lysine-periodate fixative and snap frozen in O.C.T. embedding compound (10.24% w/w polyvinyl alcohol, 4.26% w/w polyethylene glycol, 85.50% w/w nonreactive ingredients; Tissue Tek®, Miles, Inc., Elkhart, Ind., USA). Four μm-thick sections of pig heart and liver and 2 μm-thick sections of kidney were incubated with purified anti-GAL antibodies (undiluted, 1:2 and 1:4) for 60 min. and then incubated with a fluorescein isothiocyanate (FITC)-conjugated sheep anti-human immunoglobulin F(ab′) fragment. (Silenus Laboratories, Hawthorn, Australia) (1:100) for 30 min. or a peroxidase-conjugated rabbit anti-human IgG (Dakopatts, Glostrup, Denmark) (1:50) for 60 min. Control sections were analyzed for autofluorescence, with the secondary antibody alone, or with the anti-GAL-depleted IgG or normal pig serum as the primary antibody. […] The specificity of the anti-GAL antibodies was tested by pre-incubating sections of pig renal cortex with a variety of sugars, including melibiose, lactose, sucrose and glucose at 0.1 M.

| inhibition of anti-GAL antibody binding to pig tissue by sugar [3] | SMILES | Inhibitory Concentration [1] | concentration range inhibiting agglutination (in words) [1] | inhibition of anti-GAL IgM and/or IgG staining of porcine cells by sugar [2] | decrease of anti-GAL antibody staining of PAE's (FIG. 1) ([2]; anti-GAL antibody pre-incubated with sugar, versus anti-GAL antibody alone) |
| --- | --- | --- | --- | --- | --- |
| – | O=C[C@H](O)[C@@H](O)[C@@H](O)[C@H](O)CO [Galactose, D(+)galactose] | 0.002 M | μM to mM range | inhibited | approximately 10 fold less |
| – | OC[C@H]1O[C@H](OC[C@H]2O[C@H](OC[C@H]3O[C@H](O[C@]4(CO)O[C@H](CO)[C@@H](O)[C@@H]4O)[C@H](O)[C@@H](O)[C@@H]3O)[C@H](O)[C@@H](O)[C@H]2O)[C@H](O)[C@@H](O)[C@H]1O [Stachyose, α-D-gal-[1->6]-α-D-Glc-[1->2]-β-D-Fru] | 0.002 M | μM to mM range | inhibited | – |
| not inhibited | OC[C@H]1O[C@@](CO)(O[C@H]2O[C@H](CO)[C@@H](O)[C@H](O)[C@H]2O)[C@@H](O)[C@@H]1O [Sucrose, α-D-Glucopyranosyl β-D-fructofuranoside] | >10^−1M | only inhibitory when very high concentrations were used | – | – |
